Laboratory results taken from US7884070B2, “Linear cationic peptides having antibacterial and/or antifungal properties” (priority 2002, dated 2011).
Converted amounts (≈) assume the structure as drawn. Where a SMILES comes first, the peptide text is derived from it.

Tests used:
[1] = test system: Klebsiella pneumoniae ATCC 13883; type: cell-based
[2] = test system: Listeria monocytogenes ATCC 19115; type: cell-based
[3] = test system: Acinetobacter baumanii ATCC 19606; type: cell-based
[4] = In vivo toxicity: maximal tolerated dose (MTD); details: mouse, female OFI mice, intravenous perfusion approx. 15 minutes, 28 days after an injection
Method: The maximal tolerated dose (MTD) for each peptide was determined on female OFI mice at 28 days after an injection. The MTD was defined as the maximal nonlethal dose that could be injected. The peptides were administered by the intravenous route as a perfusion of approximately 15 minutes duration. The injection volume was 10 μl/g, the perfusion rate was 1.2 ml/hour and the excipient was a solution of NaCl at 0.8%.

[5] = test system: Streptococcus agalactiae ATCC 13813; type: cell-based
[6] = test system: Enterobacter aerogenes ATCC 13048; type: cell-based
[7] = test system: Escherichia coli ATCC 25922; type: cell-based
[8] = test system: Staphylococcus epidermidis ATCC 12228; type: cell-based
[9] = test system: Pseudomonas aeruginosa ATCC 27853; type: cell-based
[10] = test system: Shigella sonnei ATCC 25931
Method: The MIC values were determined by the method of microdilution in liquid medium (NCCLS M7A5) for all of the bacterial species on 96-well polystyrene plates.
The culture medium was Mueller-Hinton broth (MHB) (pH≈7.2-7.4) with supplements according to the bacterial species studied: • MHB alone for the non-exigent species, • MHB+3% lysed horse blood for the streptococci, Listeria and Neisseria, • MHB+hemin 15 mg/l+NAD 15 mg/l+yeast extract 5 g/l for Haemophilus.
The bacterial inoculum was prepared from re-isolation performed on: • CLED agar: non-exigent strains, • blood agar+5% goat blood: streptococci, Listeria and Neisseria • chocolate agar+5% goat blood: Haemophilus, Neisseria.
The final inoculum was at ≈5·10^5 cfu/ml (colony forming units). 50 μl of bacterial inoculum was distributed per well containing an equal volume of the peptide solution diluted by half in the appropriate culture medium depending on the bacterial species (0.5 to 512 μg/ml). The cultures were incubated at 35° C. in ambient air for 16 to 20 hours (20 to 24 h for the streptococci).
Determination of the MBC values was performed after inhibition and reading of the MIC plates:
A volume of 3 μl of each concentration of antibiotic was deposited on the agar media: • MH: for the non-exigent strains, • MH+5% sheep blood: for the streptococci, Listeria, Bacillus and Neisseria, • HTM: for the Haemophilus.
The agars were incubated for 18 h at 35° C. in atmosphere: • in ambient air: for the non-exigent strains, • with 5-6% of CO2: for the streptococci, Listeria, Haemophilus and Neisseria.
The MBC is the lowest concentration of antibiotic that inhibits all bacterial growth on the transplant agar (<0. 1% of survivors).

Neisseria sica ATCC 9913 = type: cell-based
[11] = test system: Micrococcus luteus ATCC 9341; type: cell-based
[12] = test system: Enterococcus faecium ATCC 35667; type: cell-based
[13] = test system: Streptococcus pyogenes ATCC 19615; type: cell-based
[14] = test system: Citrobacter freundii ATCC 8090; type: cell-based
[15] = test system: Bacillus subtilis ATCC 6633; type: cell-based
[16] = test system: Streptococcus pneumoniae ATCC 49619; type: cell-based
[17] = test system: Serratia marcescens ATCC 8100; type: cell-based
C. neoformans Cn52D = type: cell-based, Cryptococcus neoformans
Method: D. Determination of the miminimal inhibitory concentration (MIC) in liquid medium for the Filamentous Fungi and Yeast
Peptide concentrations tested: from 0.2 μg/ml to 100 μg/ml.

[18] = test system: Proteus vulgaris ATCC 13315; type: cell-based
[19] = test system: Enterobacter cloacae ATCC 23355; type: cell-based
[20] = test system: Escherichia coli ATCC 35218; type: cell-based
[21] = test system: Shigella flexneri ATCC 112022
[22] = test system: Haemophilus influenzae ATCC 49247; type: cell-based
[23] = test system: Salmonella typhimurium ATCC 14028; type: cell-based
[24] = test system: Staphylococcus aureus ATCC 25923; type: cell-based
[25] = test system: Enterococcus faecalis ATCC 29212; type: cell-based
in vitro = details: human, human plasma
Method: The stability was determined at 37° C. After 0, 0.5, 1, 2, 4 and 6 hours, 3×200 μl were collected and added to 10 μl of internal standard (peptide no. 1) at 500 μM in water, to which 800 μl of 0.1% trifluoroacetic acid (TFA) in water was added. A volume of 1 ml of this mixture was deposited on resin C2 (EC) that had previously been equilibrated with 1 ml of 0.1% TFA in water, 1 ml of 0.1% TFA in acetonitrile and 1 ml of 0.1% TFA in water. After two washings with 1 ml of 0.1% TFA in water, the elution of peptide and of its metabolites was induced by 1 ml of 0.1% TFA in methanol. This was then dried under a stream of air and taken up in 200 μl of 0.1% TFA in water. A volume of 100 μl was analyzed by HPLC on a Luna C1 8(2) column, 3 μg, 4.6×100 mm (Phenomenex) with 0.1% TFA in water as solvent A and 0.1% TFA in acetonitrile as solvent B. A gradient of 15-45% of B in 12 minutes was used for the elution with a flow rate of 1.2 ml/min; detection was performed at 214 nm.

[26] = test system: Enterobacter aerogenes clinical strains; type: cell-based
[27] = test system: Enterococcus faecalis ATCC 19433; type: cell-based
[28] = test system: Staphylococcus aureus ATCC 14154; type: cell-based
[29] = test system: Streptococcus pneumoniae ATCC 6303; type: cell-based
[30] = test system: Acinetobacter baumanii clinical strains; type: cell-based
Method: A volume of 3 μl of each concentration of antibiotic was deposited on the agar media: • MH: for the non-exigent strains, • MH+5% sheep blood: for the streptococci, Listeria, Bacillus and Neisseria, • HTM: for the Haemophilus. […]

[31] = test system: Bacillus cereus ATCC 11778; type: cell-based

CC(C)C[C@H](NC(=O)[C@H](CCCCN)NC(=O)[C@H](C)NC(=O)[C@H](CC(C)C)NC(=O)[C@@H](N)CCCCN)C(=O)N[C@@H](C)C(=O)N[C@@H](CCCCN)C(=O)N[C@@H](CCCCN)C(=O)N[C@@H](CC(C)C)C(=O)N[C@@H](C)C(=O)N[C@@H](CCCCN)C(=O)N[C@@H](CC(C)C)C(=O)N[C@@H](C)C(=O)N[C@@H](CCCCN)C(=O)N[C@@H](CCCCN)C(=O)N[C@@H](Cc1c[nH]cn1)C(=O)N[C@@H](CC(C)C)C(=O)N[C@@H](CCCCN)C(=O)N[C@@H](CCCCN)C(=O)N[C@@H](Cc1c[nH]cn1)C(=O)N[C@@H](CC(C)C)C(=O)N[C@@H](CCCCN)C(=O)N[C@@H](CCCCN)C(=O)N[C@@H](Cc1c[nH]cn1)C(=O)N[C@@H](CC(C)C)C(=O)N[C@@H](CCCCN)C(=O)O [Peptide 2] (H-KLAKLAKKLAKLAKKHLKKHLKKHLK-OH; N-terminus and C-terminus assumed)
MBC [1]: 32 mg/L (≈ 10.5 µM) | MIC [1]: 32 mg/L (≈ 10.5 µM) | MBC [2]: 2 mg/L (≈ 0.657 µM) | MIC [2]: 2 mg/L (≈ 0.657 µM) | MBC [3]: 2 mg/L (≈ 0.657 µM) | MIC [3]: 2 mg/L (≈ 0.657 µM) | MTD at 28 days [4]: 13.5 mg/kg | MBC [5]: 8 mg/L (≈ 2.63 µM) | MIC [5]: 8 mg/L (≈ 2.63 µM) | MBC [6]: 16 mg/L (≈ 5.26 µM) | MIC [6]: 16 mg/L (≈ 5.26 µM) | MBC [7]: 2 mg/L (≈ 0.657 µM) | MIC [7]: 2 mg/L (≈ 0.657 µM) | MBC [8]: 2 mg/L (≈ 0.657 µM) | MIC [8]: 2 mg/L (≈ 0.657 µM) | MBC [9]: 8 mg/L (≈ 2.63 µM) | MIC [9]: 8 mg/L (≈ 2.63 µM) | MBC [10]: 2 mg/L (≈ 0.657 µM) | MIC [10]: 2 mg/L (≈ 0.657 µM) | MBC (Neisseria sica ATCC 9913): 0.5 mg/L (≈ 0.164 µM) | MIC (Neisseria sica ATCC 9913): 0.5 mg/L (≈ 0.164 µM) | MBC [11]: 4 mg/L (≈ 1.31 µM) | MIC [11]: 4 mg/L (≈ 1.31 µM) | MBC [12]: 32 mg/L (≈ 10.5 µM) | MIC [12]: 16 mg/L (≈ 5.26 µM) | MBC [13]: 8 mg/L (≈ 2.63 µM) | MIC [13]: 8 mg/L (≈ 2.63 µM) | MBC [14]: 8 mg/L (≈ 2.63 µM) | MIC [14]: 8 mg/L (≈ 2.63 µM) | MBC [15]: 8 mg/L (≈ 2.63 µM) | MIC [15]: 8 mg/L (≈ 2.63 µM) | MBC [16]: 256 mg/L (≈ 84.1 µM) | MIC [16]: 16 mg/L (≈ 5.26 µM) | MBC [17]: >512 mg/L | MIC [17]: >512 mg/L | MIC (C. neoformans Cn52D): 1.56 mg/L (≈ 0.512 µM) | MBC [18]: 4 mg/L (≈ 1.31 µM) | MIC [18]: 4 mg/L (≈ 1.31 µM) | MBC [19]: 2 mg/L (≈ 0.657 µM) | MIC [19]: 2 mg/L (≈ 0.657 µM) | MBC [20]: 2 mg/L (≈ 0.657 µM) | MIC [20]: 2 mg/L (≈ 0.657 µM) | MBC [21]: 2 mg/L (≈ 0.657 µM) | MIC [21]: 2 mg/L (≈ 0.657 µM) | MBC [22]: 32 mg/L (≈ 10.5 µM) | MIC [22]: 32 mg/L (≈ 10.5 µM) | MBC [23]: 4 mg/L (≈ 1.31 µM) | MIC [23]: 4 mg/L (≈ 1.31 µM) | MBC [24]: 32 mg/L (≈ 10.5 µM) | MIC [24]: 16 mg/L (≈ 5.26 µM) | MBC [25]: 32 mg/L (≈ 10.5 µM) | MIC [25]: 32 mg/L (≈ 10.5 µM) | metabolised at 6 h, 50 µM (in vitro): ≤ 41% | MBC [26]: 8 mg/L (≈ 2.63 µM) | MBC [27]: 128 mg/L (≈ 42.1 µM) | MIC [27]: 64 mg/L (≈ 21 µM) | MBC [28]: 64 mg/L (≈ 21 µM) | MIC [28]: 32 mg/L (≈ 10.5 µM) | MBC [29]: 128 mg/L (≈ 42.1 µM) | MIC [29]: 32 mg/L (≈ 10.5 µM) | MIC [30]: 2 mg/L (≈ 0.657 µM) | MBC [31]: 8 mg/L (≈ 2.63 µM) | MIC [31]: 8 mg/L (≈ 2.63 µM)
